# Measurements reported in publication PMC9569420 (Communications Biology, 2022).
# pIC50: −log10 of the molar value.
# Columns and labels:
# NEK4 = target: T1, NEK4 (Homo sapiens, UniProt P51957); experiment: HotSpot kinase assay; assay type: biochemical; conditions: read-out: % Enzyme Activity (relative to DMSO controls)
# T1 construct: purchased Reaction Biology Corporation
# HCK = target: T2, HCK (Homo sapiens, UniProt P08631); experiment: HotSpot kinase assay; assay type: biochemical; conditions: read-out: % Enzyme Activity (relative to DMSO controls)
# T2 construct: purchased Reaction Biology Corporation
# PDK1/PDPK1 = target: T3, PDK1/PDPK1 (Homo sapiens, UniProt O15530); experiment: biochemical
# T3 construct: purchased Reaction Biology Corporation
# T3 sequence (O15530 1-556): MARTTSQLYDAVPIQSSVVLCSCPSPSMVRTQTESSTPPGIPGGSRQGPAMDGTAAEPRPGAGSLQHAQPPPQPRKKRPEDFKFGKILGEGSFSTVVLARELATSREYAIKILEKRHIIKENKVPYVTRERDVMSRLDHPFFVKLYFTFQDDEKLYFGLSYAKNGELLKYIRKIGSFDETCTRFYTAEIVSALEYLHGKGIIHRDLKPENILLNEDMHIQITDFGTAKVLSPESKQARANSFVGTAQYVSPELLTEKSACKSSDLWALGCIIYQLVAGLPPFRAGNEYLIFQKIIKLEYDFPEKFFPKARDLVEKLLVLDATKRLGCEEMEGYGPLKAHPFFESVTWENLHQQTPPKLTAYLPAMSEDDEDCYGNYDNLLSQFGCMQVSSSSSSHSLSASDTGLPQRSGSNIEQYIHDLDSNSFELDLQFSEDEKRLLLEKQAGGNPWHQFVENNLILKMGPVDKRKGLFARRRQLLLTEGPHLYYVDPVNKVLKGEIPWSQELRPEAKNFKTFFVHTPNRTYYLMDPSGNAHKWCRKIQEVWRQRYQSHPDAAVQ
# RIPK2 = target: T4, RIPK2 (Homo sapiens, UniProt O43353); experiment: HotSpot kinase assay; assay type: biochemical; conditions: read-out: % Enzyme Activity (relative to DMSO controls)
# T4 construct: purchased Reaction Biology Corporation
# WNK2 = target: T5, WNK2 (Homo sapiens, UniProt Q9Y3S1); experiment: HotSpot kinase assay; assay type: biochemical; conditions: read-out: % Enzyme Activity (relative to DMSO controls)
# T5 construct: purchased Reaction Biology Corporation
# DYRK1B = target: T6, DYRK1B (Homo sapiens, UniProt Q9Y463); experiment: HotSpot kinase assay; assay type: biochemical; conditions: read-out: % Enzyme Activity (relative to DMSO controls)
# T6 construct: purchased Reaction Biology Corporation
# [1] = tested on: Primary vaginal epithelial cells; experiment: cell proliferation and viability, ~50% confluent; conditions: for cell proliferation and viability, odu as a percentage of the DMSO control: 120 h (Fig 1d source data)
# [2] = cell proliferation and viability, ~50% confluent; conditions: human, cell proliferation and viability, odu as a percentage of the DMSO control, 120 h (Fig 1d source data)
# BTK = target: T7, BTK (Homo sapiens, UniProt Q06187); experiment: HotSpot kinase assay; assay type: biochemical; conditions: read-out: % Enzyme Activity (relative to DMSO controls)
# T7 construct: purchased Reaction Biology Corporation
# Aurora A = target: T8, Aurora A (Homo sapiens, UniProt O14965); experiment: HotSpot kinase assay; assay type: biochemical; conditions: read-out: % Enzyme Activity (relative to DMSO controls)
# T8 construct: purchased Reaction Biology Corporation
# MST4 = target: T9, MST4 (Homo sapiens, UniProt Q9P289); experiment: HotSpot kinase assay; assay type: biochemical; conditions: read-out: % Enzyme Activity (relative to DMSO controls)
# T9 construct: purchased Reaction Biology Corporation
# FES/FPS = target: T10, FES/FPS (Homo sapiens, UniProt P07332); experiment: HotSpot kinase assay; assay type: biochemical; conditions: read-out: % Enzyme Activity (relative to DMSO controls)
# T10 construct: purchased Reaction Biology Corporation
# ALK = target: T11, ALK (Homo sapiens, UniProt Q9UM73); experiment: HotSpot kinase assay; assay type: biochemical; conditions: read-out: % Enzyme Activity (relative to DMSO controls)
# T11 construct: purchased Reaction Biology Corporation
# PKN2/PRK2 = target: T12, PKN2/PRK2 (Homo sapiens, UniProt Q16513); experiment: HotSpot kinase assay; assay type: biochemical; conditions: read-out: % Enzyme Activity (relative to DMSO controls)
# T12 construct: purchased Reaction Biology Corporation
# MASTL = target: T13, MASTL (Homo sapiens, UniProt Q96GX5); experiment: HotSpot kinase assay; assay type: biochemical; conditions: read-out: % Enzyme Activity (relative to DMSO controls)
# T13 construct: purchased Reaction Biology Corporation
# RIPK4 = target: T14, RIPK4 (Homo sapiens, UniProt P57078); experiment: HotSpot kinase assay; assay type: biochemical; conditions: read-out: % Enzyme Activity (relative to DMSO controls)
# T14 construct: purchased Reaction Biology Corporation
# SRPK2 = target: T15, SRPK2 (Homo sapiens, UniProt P78362); experiment: HotSpot kinase assay; assay type: biochemical; conditions: read-out: % Enzyme Activity (relative to DMSO controls)
# T15 construct: purchased Reaction Biology Corporation
# SGK2 = target: T16, SGK2 (Homo sapiens, UniProt Q9HBY8); experiment: HotSpot kinase assay; assay type: biochemical; conditions: read-out: % Enzyme Activity (relative to DMSO controls)
# T16 construct: purchased Reaction Biology Corporation
# DCAMKL2 = target: T17, DCAMKL2 (Homo sapiens, UniProt Q8N568); experiment: HotSpot kinase assay; assay type: biochemical; conditions: read-out: % Enzyme Activity (relative to DMSO controls)
# T17 construct: purchased Reaction Biology Corporation
# MEK5 = target: T18, MEK5 (Homo sapiens, UniProt Q13163); experiment: HotSpot kinase assay; assay type: biochemical; conditions: read-out: % Enzyme Activity (relative to DMSO controls)
# T18 construct: purchased Reaction Biology Corporation
# KDR/VEGFR2 = target: T19, KDR/VEGFR2 (Homo sapiens, UniProt P35968); experiment: HotSpot kinase assay; assay type: biochemical; conditions: read-out: % Enzyme Activity (relative to DMSO controls)
# T19 construct: purchased Reaction Biology Corporation
# TRKB = target: T20, TRKB (Homo sapiens, UniProt Q16620); experiment: HotSpot kinase assay; assay type: biochemical; conditions: read-out: % Enzyme Activity (relative to DMSO controls)
# T20 construct: purchased Reaction Biology Corporation
# PAK3 = target: T21, PAK3 (Homo sapiens, UniProt O75914); experiment: HotSpot kinase assay; assay type: biochemical; conditions: read-out: % Enzyme Activity (relative to DMSO controls)
# T21 construct: purchased Reaction Biology Corporation
# GRK1 = target: T22, GRK1 (Homo sapiens, UniProt Q15835); experiment: HotSpot kinase assay; assay type: biochemical; conditions: read-out: % Enzyme Activity (relative to DMSO controls)
# T22 construct: purchased Reaction Biology Corporation
# CTK/MATK = target: T23, CTK/MATK (Homo sapiens, UniProt P42679); experiment: HotSpot kinase assay; assay type: biochemical; conditions: read-out: % Enzyme Activity (relative to DMSO controls)
# T23 construct: purchased Reaction Biology Corporation
# VSV-S = assay type: cell-based, VSV pseudotyped with SARS-CoV-2 spike
# CDK1/cyclin B = target: T24, CDK1/cyclin B (Homo sapiens, UniProt P06493); experiment: HotSpot kinase assay; assay type: biochemical; conditions: read-out: % Enzyme Activity (relative to DMSO controls)
# T24 construct: purchased Reaction Biology Corporation
# DMPK = target: T25, DMPK (Homo sapiens, UniProt Q09013); experiment: HotSpot kinase assay; assay type: biochemical; conditions: read-out: % Enzyme Activity (relative to DMSO controls)
# T25 construct: purchased Reaction Biology Corporation
# PDGFRa = target: T26, PDGFRa (Homo sapiens, UniProt P16234); experiment: HotSpot kinase assay; assay type: biochemical; conditions: read-out: % Enzyme Activity (relative to DMSO controls)
# T26 construct: purchased Reaction Biology Corporation
# PASK = target: T27, PASK (Homo sapiens, UniProt Q96RG2); experiment: HotSpot kinase assay; assay type: biochemical; conditions: read-out: % Enzyme Activity (relative to DMSO controls)
# T27 construct: purchased Reaction Biology Corporation
# MUSK = target: T28, MUSK (Homo sapiens, UniProt O15146); experiment: HotSpot kinase assay; assay type: biochemical; conditions: read-out: % Enzyme Activity (relative to DMSO controls)
# T28 construct: purchased Reaction Biology Corporation
# IKKe/IKBKE = target: T29, IKKe/IKBKE (Homo sapiens, UniProt Q14164); experiment: HotSpot kinase assay; assay type: biochemical; conditions: read-out: % Enzyme Activity (relative to DMSO controls)
# T29 construct: purchased Reaction Biology Corporation
# Akt (pAkt T308) = assay type: cell-based, monkey; conditions: 10µM
# ERBB2/HER2 = target: T30, ERBB2/HER2 (Homo sapiens, UniProt P04626); experiment: biochemical; conditions: read-out: % Enzyme Activity (relative to DMSO controls)
# T30 construct: purchased Reaction Biology Corporation
# T20 sequence (Q16620 32-822): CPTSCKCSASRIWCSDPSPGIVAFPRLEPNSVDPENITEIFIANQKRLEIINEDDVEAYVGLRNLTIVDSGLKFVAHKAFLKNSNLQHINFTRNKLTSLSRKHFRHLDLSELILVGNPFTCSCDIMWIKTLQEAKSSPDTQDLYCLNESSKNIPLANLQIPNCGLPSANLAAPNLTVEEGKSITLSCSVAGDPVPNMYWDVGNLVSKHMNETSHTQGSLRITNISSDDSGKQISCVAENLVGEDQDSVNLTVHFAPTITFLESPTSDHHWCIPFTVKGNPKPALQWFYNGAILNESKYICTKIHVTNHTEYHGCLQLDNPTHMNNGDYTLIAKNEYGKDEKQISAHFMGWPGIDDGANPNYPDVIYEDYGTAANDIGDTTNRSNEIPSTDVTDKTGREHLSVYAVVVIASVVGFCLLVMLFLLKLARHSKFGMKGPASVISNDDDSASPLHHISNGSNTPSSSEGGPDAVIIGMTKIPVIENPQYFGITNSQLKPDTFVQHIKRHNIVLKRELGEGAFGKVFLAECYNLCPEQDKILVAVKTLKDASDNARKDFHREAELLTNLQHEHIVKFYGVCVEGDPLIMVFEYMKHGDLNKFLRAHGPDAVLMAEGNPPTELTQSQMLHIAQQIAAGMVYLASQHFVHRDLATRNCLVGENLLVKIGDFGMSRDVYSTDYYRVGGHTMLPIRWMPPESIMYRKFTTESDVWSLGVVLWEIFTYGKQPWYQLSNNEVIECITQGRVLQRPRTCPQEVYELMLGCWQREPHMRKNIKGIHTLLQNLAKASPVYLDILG
# T16 sequence (Q9HBY8 whole entry): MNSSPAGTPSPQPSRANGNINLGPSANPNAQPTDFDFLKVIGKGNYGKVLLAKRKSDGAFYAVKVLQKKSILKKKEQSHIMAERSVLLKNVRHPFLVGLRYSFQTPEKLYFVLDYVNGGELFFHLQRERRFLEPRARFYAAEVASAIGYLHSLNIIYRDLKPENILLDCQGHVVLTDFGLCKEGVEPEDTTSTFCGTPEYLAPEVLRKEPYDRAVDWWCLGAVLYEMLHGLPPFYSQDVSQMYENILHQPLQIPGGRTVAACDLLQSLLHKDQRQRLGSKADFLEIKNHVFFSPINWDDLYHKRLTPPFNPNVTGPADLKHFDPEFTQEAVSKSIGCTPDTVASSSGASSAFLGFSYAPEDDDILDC
# T2 sequence (P08631 whole entry): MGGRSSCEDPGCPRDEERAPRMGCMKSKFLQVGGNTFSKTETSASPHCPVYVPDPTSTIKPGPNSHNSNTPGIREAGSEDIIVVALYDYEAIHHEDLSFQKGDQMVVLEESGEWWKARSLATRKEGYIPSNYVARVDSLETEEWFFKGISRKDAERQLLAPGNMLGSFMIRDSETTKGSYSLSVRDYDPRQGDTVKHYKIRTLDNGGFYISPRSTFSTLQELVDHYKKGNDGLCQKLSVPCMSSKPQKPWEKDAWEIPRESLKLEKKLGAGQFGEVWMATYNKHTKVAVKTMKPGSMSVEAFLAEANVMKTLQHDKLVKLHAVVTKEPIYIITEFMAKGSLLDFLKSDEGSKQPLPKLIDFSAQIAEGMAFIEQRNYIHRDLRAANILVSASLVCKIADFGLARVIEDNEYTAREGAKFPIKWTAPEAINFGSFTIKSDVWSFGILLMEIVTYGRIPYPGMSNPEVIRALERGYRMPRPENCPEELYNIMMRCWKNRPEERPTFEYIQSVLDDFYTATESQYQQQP
# T11 sequence (Q9UM73 19-1620): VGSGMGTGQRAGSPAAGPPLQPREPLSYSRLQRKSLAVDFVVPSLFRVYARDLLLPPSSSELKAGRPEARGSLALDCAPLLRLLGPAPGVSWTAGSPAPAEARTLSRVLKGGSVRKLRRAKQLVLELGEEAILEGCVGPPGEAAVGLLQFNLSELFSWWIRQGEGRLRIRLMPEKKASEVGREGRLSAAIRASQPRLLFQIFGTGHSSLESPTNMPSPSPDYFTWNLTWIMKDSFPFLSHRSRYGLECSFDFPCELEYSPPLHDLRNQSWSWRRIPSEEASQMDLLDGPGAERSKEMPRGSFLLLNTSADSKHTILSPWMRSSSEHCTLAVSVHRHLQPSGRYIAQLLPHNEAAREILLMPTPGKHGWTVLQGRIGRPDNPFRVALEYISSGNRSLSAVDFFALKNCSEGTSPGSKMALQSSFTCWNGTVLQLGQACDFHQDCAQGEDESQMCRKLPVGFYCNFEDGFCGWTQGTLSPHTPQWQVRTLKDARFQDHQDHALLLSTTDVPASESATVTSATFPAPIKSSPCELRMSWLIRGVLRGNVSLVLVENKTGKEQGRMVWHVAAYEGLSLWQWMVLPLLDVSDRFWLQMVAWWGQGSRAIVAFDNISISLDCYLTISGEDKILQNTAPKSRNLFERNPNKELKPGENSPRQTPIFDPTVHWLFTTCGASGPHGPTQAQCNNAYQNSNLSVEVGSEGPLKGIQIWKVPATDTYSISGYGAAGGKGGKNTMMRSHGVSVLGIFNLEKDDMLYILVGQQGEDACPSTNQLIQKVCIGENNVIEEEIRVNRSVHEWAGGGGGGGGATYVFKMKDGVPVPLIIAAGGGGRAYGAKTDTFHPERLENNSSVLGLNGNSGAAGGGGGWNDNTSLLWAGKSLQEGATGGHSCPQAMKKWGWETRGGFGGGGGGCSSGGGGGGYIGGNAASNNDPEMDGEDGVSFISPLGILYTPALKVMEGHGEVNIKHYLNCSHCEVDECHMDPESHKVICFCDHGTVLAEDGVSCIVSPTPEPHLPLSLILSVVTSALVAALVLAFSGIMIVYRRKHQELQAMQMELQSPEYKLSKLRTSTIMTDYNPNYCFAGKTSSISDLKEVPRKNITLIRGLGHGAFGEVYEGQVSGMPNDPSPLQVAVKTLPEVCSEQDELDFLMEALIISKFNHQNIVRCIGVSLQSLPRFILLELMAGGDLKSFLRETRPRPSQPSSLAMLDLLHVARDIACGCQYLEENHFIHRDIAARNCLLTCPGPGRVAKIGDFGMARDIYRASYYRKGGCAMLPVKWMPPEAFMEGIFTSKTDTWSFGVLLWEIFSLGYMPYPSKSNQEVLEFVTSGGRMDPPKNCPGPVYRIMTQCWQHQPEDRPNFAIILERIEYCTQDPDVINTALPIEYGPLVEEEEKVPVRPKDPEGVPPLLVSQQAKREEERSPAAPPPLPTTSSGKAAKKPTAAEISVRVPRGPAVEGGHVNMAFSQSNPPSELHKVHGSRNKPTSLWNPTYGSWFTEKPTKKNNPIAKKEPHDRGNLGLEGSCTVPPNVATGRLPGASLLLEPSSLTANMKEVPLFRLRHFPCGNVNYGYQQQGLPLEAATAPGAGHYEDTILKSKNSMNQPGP
# T19 sequence (P35968 20-1356): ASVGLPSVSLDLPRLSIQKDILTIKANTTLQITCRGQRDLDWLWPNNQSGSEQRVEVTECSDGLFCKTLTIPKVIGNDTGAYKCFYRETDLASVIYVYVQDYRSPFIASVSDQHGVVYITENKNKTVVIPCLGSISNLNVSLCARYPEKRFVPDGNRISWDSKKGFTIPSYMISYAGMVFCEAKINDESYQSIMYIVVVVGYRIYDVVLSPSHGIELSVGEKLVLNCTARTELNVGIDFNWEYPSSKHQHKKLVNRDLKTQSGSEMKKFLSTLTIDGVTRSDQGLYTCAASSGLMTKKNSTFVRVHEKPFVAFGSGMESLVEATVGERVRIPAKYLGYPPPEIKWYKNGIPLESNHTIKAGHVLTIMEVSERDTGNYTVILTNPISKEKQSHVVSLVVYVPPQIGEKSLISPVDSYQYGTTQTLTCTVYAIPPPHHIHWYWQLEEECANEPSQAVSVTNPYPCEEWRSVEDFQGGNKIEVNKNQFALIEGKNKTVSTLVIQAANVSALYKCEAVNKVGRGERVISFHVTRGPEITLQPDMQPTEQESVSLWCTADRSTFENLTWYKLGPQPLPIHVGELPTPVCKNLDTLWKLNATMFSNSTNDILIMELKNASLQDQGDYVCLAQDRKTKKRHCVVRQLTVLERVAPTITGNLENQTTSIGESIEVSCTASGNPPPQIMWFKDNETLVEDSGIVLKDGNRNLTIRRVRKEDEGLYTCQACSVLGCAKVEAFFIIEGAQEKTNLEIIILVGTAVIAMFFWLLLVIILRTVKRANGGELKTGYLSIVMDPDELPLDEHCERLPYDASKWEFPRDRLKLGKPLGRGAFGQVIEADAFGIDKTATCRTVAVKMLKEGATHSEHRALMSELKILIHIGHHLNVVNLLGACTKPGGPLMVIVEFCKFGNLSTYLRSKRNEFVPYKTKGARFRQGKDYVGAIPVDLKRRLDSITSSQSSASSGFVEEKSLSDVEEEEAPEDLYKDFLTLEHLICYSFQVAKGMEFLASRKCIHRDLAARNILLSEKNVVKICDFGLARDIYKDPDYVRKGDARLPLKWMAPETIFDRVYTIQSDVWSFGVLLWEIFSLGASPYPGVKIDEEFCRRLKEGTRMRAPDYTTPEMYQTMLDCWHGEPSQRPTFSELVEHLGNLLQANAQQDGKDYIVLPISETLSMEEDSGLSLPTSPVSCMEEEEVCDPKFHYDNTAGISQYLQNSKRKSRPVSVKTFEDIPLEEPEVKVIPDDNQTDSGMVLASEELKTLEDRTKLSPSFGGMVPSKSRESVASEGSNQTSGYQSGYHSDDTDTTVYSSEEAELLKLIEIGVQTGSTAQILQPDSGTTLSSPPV
# T8 sequence (O14965 whole entry): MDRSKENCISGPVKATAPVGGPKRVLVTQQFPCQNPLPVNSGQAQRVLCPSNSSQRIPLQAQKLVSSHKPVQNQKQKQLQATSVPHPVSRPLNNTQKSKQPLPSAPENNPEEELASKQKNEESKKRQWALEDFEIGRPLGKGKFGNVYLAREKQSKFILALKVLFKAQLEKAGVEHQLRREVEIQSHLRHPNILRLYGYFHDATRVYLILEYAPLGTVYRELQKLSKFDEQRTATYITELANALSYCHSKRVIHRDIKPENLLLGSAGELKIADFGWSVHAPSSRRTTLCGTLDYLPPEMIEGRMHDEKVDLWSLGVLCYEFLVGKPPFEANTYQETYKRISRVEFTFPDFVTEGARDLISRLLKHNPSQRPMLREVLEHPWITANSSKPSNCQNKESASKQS
compound,measurement,setting,value
CO[C@@H]1[C@H](N(C)C(=O)CCC(=O)NCc2cn(CCCS(=O)(=O)O)nn2)C[C@H]2O[C@]1(C)n1c3ccccc3c3c4c(c5c6ccccc6n2c5c31)C(=O)NC4 [CIMSS],remaining activity at 10 µM,NEK4,6.24%
same,remaining activity at 10 µM,HCK,7.23%
same,pIC50,"PDK1/PDPK1; Supplementary Table 1, PDPK1, read-out: IC50 (Molar concentration)",9.56
same,remaining activity at 10 µM,"PDK1/PDPK1; read-out: % Enzyme Activity (relative to DMSO controls), 10µM",4.24%
same,inhibition at 10 µM,PDK1/PDPK1; read-out: inhibition of PDPK1,> 75%
same,remaining activity at 10 µM,RIPK2,41.7%
same,remaining activity at 10 µM,WNK2,71.9%
same,remaining activity at 10 µM,DYRK1B,0.41%
same,"cell proliferation and viability, odu as a percentage of the DMSO control",[1]; 10 μM,99.5%
same,"cell proliferation and viability, odu as a percentage of the DMSO control",[1]; 50 μM,91.8%
same,cytotoxicity,"[1]; 10 or 50 μM, up to 120 h",little or no cytotoxicity
same,"viability at 120 h, 10 µM",[2]; 10 μM,102%
same,"viability at 120 h, 50 µM",[2]; 50 μM,93%
same,remaining activity at 10 µM,BTK,6.64%
same,remaining activity at 10 µM,Aurora A,1.92%
same,remaining activity at 10 µM,MST4,1.35%
same,remaining activity at 10 µM,FES/FPS,2.77%
same,remaining activity at 10 µM,ALK,4.12%
same,remaining activity at 10 µM,PKN2/PRK2,6.62%
same,remaining activity at 10 µM,MASTL,33.8%
same,remaining activity at 10 µM,RIPK4,99.1%
same,remaining activity at 10 µM,SRPK2,8.02%
same,remaining activity at 10 µM,SGK2,22.6%
same,remaining activity at 10 µM,DCAMKL2,87.7%
same,remaining activity at 10 µM,MEK5,40.4%
same,remaining activity at 10 µM,KDR/VEGFR2,7.22%
same,remaining activity at 10 µM,TRKB,1.79%
same,remaining activity at 10 µM,PAK3,6.48%
same,remaining activity at 10 µM,GRK1,4.7%
same,remaining activity at 10 µM,CTK/MATK,24.6%
same,VSV-S infection,VSV-S,inhibited
same,remaining activity at 10 µM,CDK1/cyclin B,13.6%
same,remaining activity at 10 µM,DMPK,76.5%
same,remaining activity at 10 µM,PDGFRa,6.05%
same,remaining activity at 10 µM,PASK,41.6%
same,remaining activity at 10 µM,MUSK,3.33%
same,remaining activity at 10 µM,IKKe/IKBKE,1.47%
same,extracellular phosphorylation of Akt,Akt (pAkt T308),inhibited
same,remaining activity at 10 µM,ERBB2/HER2,35.9%
